Measurements from US20180008575A1, “METHODS OF TREATING BINGE EATING DISORDER” (Neurovance, Inc., priority 2016, published 2018).

What was measured:
[1] = target: serotonin reuptake (5-HT) (Homo sapiens, UniProt P31645); assay: serotonin reuptake inhibition; type: biochemical; conditions: fraction of the potency towards NE reuptake
[2] = target: norepinephrine reuptake (NE) (Homo sapiens, UniProt P23975); assay: norepinephrine reuptake inhibition; type: biochemical; conditions: unbalanced triple reuptake inhibitor
Chain of norepinephrine reuptake (NE) (P23975 whole entry): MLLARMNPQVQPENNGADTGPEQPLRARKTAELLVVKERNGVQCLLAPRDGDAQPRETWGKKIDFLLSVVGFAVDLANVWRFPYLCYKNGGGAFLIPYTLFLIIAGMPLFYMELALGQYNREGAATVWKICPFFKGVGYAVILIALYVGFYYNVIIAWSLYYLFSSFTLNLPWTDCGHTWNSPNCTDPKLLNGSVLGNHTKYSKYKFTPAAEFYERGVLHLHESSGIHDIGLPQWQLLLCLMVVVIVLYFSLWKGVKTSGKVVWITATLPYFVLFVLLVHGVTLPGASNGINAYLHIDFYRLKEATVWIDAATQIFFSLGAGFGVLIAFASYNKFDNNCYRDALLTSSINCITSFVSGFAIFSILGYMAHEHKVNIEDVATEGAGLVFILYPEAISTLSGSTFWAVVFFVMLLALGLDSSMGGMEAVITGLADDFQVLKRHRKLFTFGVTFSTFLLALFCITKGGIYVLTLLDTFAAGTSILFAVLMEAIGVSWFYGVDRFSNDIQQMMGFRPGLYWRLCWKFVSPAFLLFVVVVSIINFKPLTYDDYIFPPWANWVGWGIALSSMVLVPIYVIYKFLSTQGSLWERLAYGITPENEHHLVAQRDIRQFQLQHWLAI

dopamine reuptake (DA) = dopamine reuptake (DA) (Homo sapiens, UniProt Q01959); assay: dopamine reuptake inhibition; type: biochemical; conditions: fraction of the potency towards NE reuptake
Chain of dopamine reuptake (DA) (Q01959 whole entry): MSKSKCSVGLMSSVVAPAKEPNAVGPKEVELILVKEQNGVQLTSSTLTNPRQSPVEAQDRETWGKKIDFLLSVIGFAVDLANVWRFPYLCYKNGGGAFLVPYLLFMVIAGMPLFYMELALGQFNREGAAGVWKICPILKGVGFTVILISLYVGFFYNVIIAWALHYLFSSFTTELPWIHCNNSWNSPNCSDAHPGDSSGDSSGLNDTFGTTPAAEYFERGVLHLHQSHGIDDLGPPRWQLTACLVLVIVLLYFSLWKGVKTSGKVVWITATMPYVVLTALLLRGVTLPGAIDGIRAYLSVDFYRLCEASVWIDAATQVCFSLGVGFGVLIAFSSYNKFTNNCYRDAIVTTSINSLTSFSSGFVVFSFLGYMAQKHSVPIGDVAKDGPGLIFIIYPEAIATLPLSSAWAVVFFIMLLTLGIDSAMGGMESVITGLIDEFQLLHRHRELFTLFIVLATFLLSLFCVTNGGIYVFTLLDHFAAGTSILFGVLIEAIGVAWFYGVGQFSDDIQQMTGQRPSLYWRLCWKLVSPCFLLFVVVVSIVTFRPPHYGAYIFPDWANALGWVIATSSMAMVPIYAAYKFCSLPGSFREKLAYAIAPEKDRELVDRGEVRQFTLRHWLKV

[3] = target: T1, monoamine oxidase A (MAO A) (Homo sapiens, UniProt P21397); assay: metabolic pathway
T1 sequence (P21397 1-527): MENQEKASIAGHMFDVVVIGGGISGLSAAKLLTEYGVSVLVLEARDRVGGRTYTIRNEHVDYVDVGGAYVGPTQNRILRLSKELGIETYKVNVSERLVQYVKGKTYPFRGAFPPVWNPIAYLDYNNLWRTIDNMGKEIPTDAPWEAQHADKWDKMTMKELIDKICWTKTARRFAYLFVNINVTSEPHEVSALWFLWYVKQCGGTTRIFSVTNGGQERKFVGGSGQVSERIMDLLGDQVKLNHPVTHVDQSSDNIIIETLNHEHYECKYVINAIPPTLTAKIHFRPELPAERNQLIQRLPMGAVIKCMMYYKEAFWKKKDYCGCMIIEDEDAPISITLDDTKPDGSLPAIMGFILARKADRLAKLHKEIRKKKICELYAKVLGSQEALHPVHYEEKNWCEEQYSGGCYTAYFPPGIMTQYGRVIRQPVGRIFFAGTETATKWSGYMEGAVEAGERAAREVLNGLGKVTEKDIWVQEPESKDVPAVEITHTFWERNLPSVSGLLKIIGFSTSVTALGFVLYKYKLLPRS

Chain of serotonin reuptake (5-HT) (P31645 whole entry): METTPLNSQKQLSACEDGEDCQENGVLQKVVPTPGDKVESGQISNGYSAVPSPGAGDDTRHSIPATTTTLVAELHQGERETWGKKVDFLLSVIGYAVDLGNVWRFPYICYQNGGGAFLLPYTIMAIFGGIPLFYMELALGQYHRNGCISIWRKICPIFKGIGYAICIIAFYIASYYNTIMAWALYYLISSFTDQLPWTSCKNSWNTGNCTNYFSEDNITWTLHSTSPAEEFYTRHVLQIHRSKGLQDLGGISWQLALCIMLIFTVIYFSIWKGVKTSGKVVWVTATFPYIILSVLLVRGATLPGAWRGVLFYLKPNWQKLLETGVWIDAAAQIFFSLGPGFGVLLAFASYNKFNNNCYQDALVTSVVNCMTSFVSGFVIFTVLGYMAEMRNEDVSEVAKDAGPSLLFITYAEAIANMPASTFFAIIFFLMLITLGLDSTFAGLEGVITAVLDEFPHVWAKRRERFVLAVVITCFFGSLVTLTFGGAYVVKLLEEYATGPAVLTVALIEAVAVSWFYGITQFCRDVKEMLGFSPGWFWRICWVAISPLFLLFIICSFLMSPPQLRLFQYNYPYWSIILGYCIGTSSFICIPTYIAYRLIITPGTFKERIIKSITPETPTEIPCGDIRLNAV

SMILES: c1ccc2cc([C@]34CNC[C@H]3C4)ccc2c1 [(1R,5S)-1-(naphthalen-2-yl)-3-azabicyclo[3.1.0]hexane]
- potency towards serotonin reuptake relative to norepinephrine reuptake [1]: one-fourteenth
- potency towards norepinephrine reuptake (relative rank among NE, DA, 5-HT) [2]: most potency towards norepinephrine reuptake
- potency towards dopamine reuptake relative to norepinephrine reuptake (dopamine reuptake (DA)): one-sixth
- primary metabolising enzyme [3]: primarily metabolized by monoamine oxidase A (MAO A)
